Test system: Hs578T multi-cell spheroids, viability
Assay: Anticancer human tumor Hs578T cell line growth inhibition [IpAb];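 also: drug exposure lasted 7 days before readout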
Conditions: for IC50: curve of first compound; for viability, T/C: stronger effect = lower value
Method in brief: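 Spheroids of 60% malignant cells, 25% HUVEC and 15% MSC were exposed to targeted agents combined with ipatasertib or abemaciclib. Doses started at or near clinical Cmax (10 microM when unknown) and fell in half-log steps.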

[1] = second compound 0.1 µM, first compound 0.0316 µM
[2] = second compound 0.1 µM, first compound 0.1 µM
[3] = second compound 0.1 µM, first compound 0.316 µM
[4] = second compound 0.1 µM, first compound 1 µM
[5] = second compound 0.1 µM, first compound 3.16 µM
[6] = second compound 0.1 µM, first compound 10 µM
[7] = second compound 0.316 µM, first compound 0.0316 µM
[8] = second compound 0.316 µM, first compound 0.1 µM
[9] = second compound 0.316 µM, first compound 0.316 µM
[10] = second compound 0.316 µM, first compound 1 µM
[11] = second compound 0.316 µM, first compound 3.16 µM
[12] = second compound 0.316 µM, first compound 10 µM
[13] = second compound 1 µM, first compound 0.0316 µM
[14] = second compound 1 µM, first compound 0.1 µM
[15] = second compound 1 µM, first compound 0.316 µM
[16] = second compound 1 µM, first compound 1 µM
[17] = second compound 1 µM, first compound 3.16 µM
[18] = second compound 1 µM, first compound 10 µM

SMILES: Cn1ncc(Cl)c1-c1cc(C(=O)NC(CN)Cc2cccc(F)c2)sc1Cl (stereo not given) + CC(C)NCC(C(=O)N1CCN(c2ncnc3c2C(C)CC3O)CC1)c1ccc(Cl)cc1
- IC50 (second compound 0.1 µM): 1680 nM
- IC50 (second compound 0.316 µM): 2070 nM
- IC50 (second compound 1 µM): 1110 nM
- IC50 (second compound 3.16 µM): 951 nM
- IC50 (second compound 10 µM): 31.6 nM
- viability, T/C [1]: 90.9%
- viability, T/C [2]: 83.2%
- viability, T/C [3]: 70%
- viability, T/C [4]: 56.5%
- viability, T/C [5]: 44.5%
- viability, T/C [6]: 0.16%
- viability, T/C [7]: 51.9%
- viability, T/C [8]: 73.5%
- viability, T/C [9]: 67.1%
- viability, T/C [10]: 54.5%
- viability, T/C [11]: 45.9%
- viability, T/C [12]: 0.16%
- viability, T/C [13]: 67.3%
- viability, T/C [14]: 62.1%
- viability, T/C [15]: 50.1%
- viability, T/C [16]: 51.6%
- viability, T/C [17]: 39.4%
- viability, T/C [18]: 0.15%
- viability, T/C (second compound 3.16 µM, first compound 0.0316 µM): 53.2%
- viability, T/C (second compound 3.16 µM, first compound 0.1 µM): 53.7%
- viability, T/C (second compound 3.16 µM, first compound 0.316 µM): 49%
- viability, T/C (second compound 3.16 µM, first compound 1 µM): 48.6%
- viability, T/C (second compound 3.16 µM, first compound 3.16 µM): 41.5%
- viability, T/C (second compound 3.16 µM, first compound 10 µM): 0.16%
- viability, T/C (second compound 10 µM, first compound 0.0316 µM): 42.7%
- viability, T/C (second compound 10 µM, first compound 0.1 µM): 47.3%
- viability, T/C (second compound 10 µM, first compound 0.316 µM): 43.9%
- viability, T/C (second compound 10 µM, first compound 1 µM): 52.2%
- viability, T/C (second compound 10 µM, first compound 3.16 µM): 28.6%
- viability, T/C (second compound 10 µM, first compound 10 µM): 0.24%

SMILES: C=CCn1c(=O)c2cnc(Nc3ccc(N4CCN(C)CC4)cc3)nc2n1-c1cccc(C(C)(C)O)n1 + CCN1CCN(Cc2ccc(Nc3ncc(F)c(-c4cc(F)c5nc(C)n(C(C)C)c5c4)n3)nc2)CC1
- IC50 (second compound 0.01 µM): 366 nM
- IC50 (second compound 0.0316 µM): 376 nM
- IC50 (second compound 0.1 µM): 459 nM
- IC50 (second compound 0.316 µM): 1260 nM
- IC50 (second compound 1 µM): 2140 nM
- viability, T/C (second compound 0.01 µM, first compound 0.0316 µM): 92.1%
- viability, T/C (second compound 0.01 µM, first compound 0.1 µM): 86.3%
- viability, T/C (second compound 0.01 µM, first compound 0.316 µM): 51.9%
- viability, T/C (second compound 0.01 µM, first compound 1 µM): 27.9%
- viability, T/C (second compound 0.01 µM, first compound 3.16 µM): 16.8%
- viability, T/C (second compound 0.01 µM, first compound 10 µM): 17.2%
- viability, T/C (second compound 0.0316 µM, first compound 0.0316 µM): 86.3%
- viability, T/C (second compound 0.0316 µM, first compound 0.1 µM): 75.3%
- viability, T/C (second compound 0.0316 µM, first compound 0.316 µM): 53%
- viability, T/C (second compound 0.0316 µM, first compound 1 µM): 31.9%
- viability, T/C (second compound 0.0316 µM, first compound 3.16 µM): 21.2%
- viability, T/C (second compound 0.0316 µM, first compound 10 µM): 17.4%
- viability, T/C [1]: 82.6%
- viability, T/C [2]: 72.2%
- viability, T/C [3]: 57.1%
- viability, T/C [4]: 36.4%
- viability, T/C [5]: 24.9%
- viability, T/C [6]: 19.2%
- viability, T/C [7]: 80.4%
- viability, T/C [8]: 76.9%
- viability, T/C [9]: 69%
- viability, T/C [10]: 55.6%
- viability, T/C [11]: 32.3%
- viability, T/C [12]: 21.4%
- viability, T/C [13]: 94.4%
- viability, T/C [14]: 92.9%
- viability, T/C [15]: 79.4%
- viability, T/C [16]: 65%
- viability, T/C [17]: 42.5%
- viability, T/C [18]: 24%

SMILES: Cn1cnc2c(F)c(Nc3ccc(Br)cc3Cl)c(C(=O)NOCCO)cc21 + CCN1CCN(Cc2ccc(Nc3ncc(F)c(-c4cc(F)c5nc(C)n(C(C)C)c5c4)n3)nc2)CC1
- IC50 (second compound 0.01 µM): 2980 nM
- IC50 (second compound 0.0316 µM): 2000 nM
- IC50 (second compound 0.1 µM): 1470 nM
- IC50 (second compound 0.316 µM): 2020 nM
- IC50 (second compound 1 µM): > 3000 nM
- viability, T/C (second compound 0.01 µM, first compound 0.00949 µM): 98.5%
- viability, T/C (second compound 0.01 µM, first compound 0.03 µM): 95%
- viability, T/C (second compound 0.01 µM, first compound 0.0949 µM): 82.1%
- viability, T/C (second compound 0.01 µM, first compound 0.3 µM): 87.5%
- viability, T/C (second compound 0.01 µM, first compound 0.949 µM): 69.4%
- viability, T/C (second compound 0.01 µM, first compound 3 µM): 49.2%
- viability, T/C (second compound 0.0316 µM, first compound 0.00949 µM): 88.3%
- viability, T/C (second compound 0.0316 µM, first compound 0.03 µM): 77%
- viability, T/C (second compound 0.0316 µM, first compound 0.0949 µM): 72.2%
- viability, T/C (second compound 0.0316 µM, first compound 0.3 µM): 79.4%
- viability, T/C (second compound 0.0316 µM, first compound 0.949 µM): 67.1%
- viability, T/C (second compound 0.0316 µM, first compound 3 µM): 40.8%
- viability, T/C (second compound 0.1 µM, first compound 0.00949 µM): 79.6%
- viability, T/C (second compound 0.1 µM, first compound 0.03 µM): 70.6%
- viability, T/C (second compound 0.1 µM, first compound 0.0949 µM): 77.7%
- viability, T/C (second compound 0.1 µM, first compound 0.3 µM): 65.5%
- viability, T/C (second compound 0.1 µM, first compound 0.949 µM): 58.3%
- viability, T/C (second compound 0.1 µM, first compound 3 µM): 38.1%
- viability, T/C (second compound 0.316 µM, first compound 0.00949 µM): 77.3%
- viability, T/C (second compound 0.316 µM, first compound 0.03 µM): 74%
- viability, T/C (second compound 0.316 µM, first compound 0.0949 µM): 68.3%
- viability, T/C (second compound 0.316 µM, first compound 0.3 µM): 68.3%
- viability, T/C (second compound 0.316 µM, first compound 0.949 µM): 56.2%
- viability, T/C (second compound 0.316 µM, first compound 3 µM): 46%
- viability, T/C (second compound 1 µM, first compound 0.00949 µM): 89.8%
- viability, T/C (second compound 1 µM, first compound 0.03 µM): 89.7%
- viability, T/C (second compound 1 µM, first compound 0.0949 µM): 78.9%
- viability, T/C (second compound 1 µM, first compound 0.3 µM): 75.3%
- viability, T/C (second compound 1 µM, first compound 0.949 µM): 69.2%
- viability, T/C (second compound 1 µM, first compound 3 µM): 53%
